Source: PubChem BioAssay AID248 (DTP/NCI, 2004)
Several values for one entry are separate records, joined by “and”; a condition that tells them apart may be missing. Identical values can stand only once. Inconclusive results and toxic doses are left out.

Test system: L1210 leukemia ip in BDF1 mice, survival T/C
Assay: NCI In Vivo Anticancer Drug Screen. Data for tumor model L1210 Leukemia (intraperitoneal) in B6D2F1 (BDF1) mice
Conditions: endpoint: mean survival time, higher = longer survival
In short: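 Value reflects the ratio of survival in compound-treated mice to survival in vehicle-treated controls, with both groups carrying the same transplanted tumor.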

[1] = dose: 100.0 mg/kg/injection, schedule: Q01DX009 (ip), vehicle: saline
[2] = dose: 100.0 mg/kg/injection, schedule: Q04DX003 (ip), vehicle: saline
[3] = dose: 200.0 mg/kg/injection, schedule: Q04DX003 (ip), vehicle: saline
[4] = dose: 100.0 mg/kg/injection, schedule: Q01DX001 (ip), vehicle: saline
[5] = dose: 200.0 mg/kg/injection, schedule: Q01DX001 (ip), vehicle: saline
[6] = dose: 400.0 mg/kg/injection, schedule: Q01DX001 (ip), vehicle: saline

COc1cc(C(=O)N2CC2)cc(OC)c1OC
T/C (dose: 25.0 mg/kg/injection, schedule: Q01DX009 (ip), vehicle: water): 96 % of control | T/C (dose: 50.0 mg/kg/injection, schedule: Q01DX009 (ip), vehicle: water): 96 % of control

Oc1ccc2ccccc2c1N=Nc1ccc(Cl)cc1
T/C (dose: 12.5 mg/kg/injection, schedule: Q01DX015 (ip), vehicle: saline): 104 % of control | T/C (dose: 25.0 mg/kg/injection, schedule: Q01DX015 (ip), vehicle: saline): 106 % of control | T/C (dose: 50.0 mg/kg/injection, schedule: Q01DX015 (ip), vehicle: saline): 106 % of control | T/C (dose: 100.0 mg/kg/injection, schedule: Q01DX009 (ip), vehicle: carboxymethylcellulose (CMC)): 87 % of control | T/C (dose: 100.0 mg/kg/injection, schedule: Q01DX015 (ip), vehicle: saline): 98 % of control | T/C (dose: 100.0 mg/kg/injection, schedule: Q04DX003 (ip), vehicle: acetone): 98 % of control | T/C (dose: 200.0 mg/kg/injection, schedule: Q01DX009 (ip), vehicle: carboxymethylcellulose (CMC)): 87 % of control | T/C (dose: 200.0 mg/kg/injection, schedule: Q01DX015 (ip), vehicle: saline): 95 % of control | T/C (dose: 200.0 mg/kg/injection, schedule: Q04DX003 (ip), vehicle: acetone): 94 % of control | T/C (dose: 400.0 mg/kg/injection, schedule: Q01DX015 (ip), vehicle: saline): 90 % of control | T/C (dose: 400.0 mg/kg/injection, schedule: Q04DX003 (ip), vehicle: acetone): 88 % of control | T/C (dose: 800.0 mg/kg/injection, schedule: Q01DX015 (ip), vehicle: saline): 96 % of control | T/C (dose: 1600.0 mg/kg/injection, schedule: Q01DX015 (ip), vehicle: saline): 89 % of control

O=C(O)C1=CC(O)C(O)C(O)C1 (stereo not drawn)
T/C (dose: 100.0 mg/kg/injection, schedule: Q01DX009 (ip), vehicle: saline sonified): 103 % of control | T/C [1]: 104 % of control | T/C [2]: 92 % of control | T/C (dose: 200.0 mg/kg/injection, schedule: Q01DX009 (ip), vehicle: saline sonified): 86 % of control | T/C (dose: 200.0 mg/kg/injection, schedule: Q01DX009 (ip), vehicle: saline): 107 % of control | T/C [3]: 100 % of control | T/C (dose: 400.0 mg/kg/injection, schedule: Q01DX009 (ip), vehicle: saline): 106 % of control | T/C (dose: 400.0 mg/kg/injection, schedule: Q04DX003 (ip), vehicle: saline): 97 % of control

O=C1c2ccccc2-c2nc3ccccc3nc21
T/C (dose: 45.0 mg/kg/injection, schedule: Q01DX009 (ip), vehicle: Klucel (hydroxypropylcellulose) (HPC)): 95 % of control | T/C (dose: 90.0 mg/kg/injection, schedule: Q01DX009 (ip), vehicle: Klucel (hydroxypropylcellulose) (HPC)): 93 % of control | T/C (dose: 100.0 mg/kg/injection, schedule: Q04DX003 (ip), vehicle: saline sonified): 101 % of control | T/C (dose: 180.0 mg/kg/injection, schedule: Q01DX009 (ip), vehicle: Klucel (hydroxypropylcellulose) (HPC)): 91 % of control | T/C (dose: 200.0 mg/kg/injection, schedule: Q04DX003 (ip), vehicle: saline sonified): 97 % of control | T/C (dose: 400.0 mg/kg/injection, schedule: Q04DX003 (ip), vehicle: saline sonified): 90 % of control

C[C@]12CC[C@@H]3c4ccc(OC5CCCCO5)cc4CC[C@H]3[C@@H]1CC[C@@H]2O (stereo partly drawn)
T/C (dose: 146.0 mg/kg/injection, schedule: Q01DX Z (ip), vehicle: steriod suspending solution): 96 % of control | T/C (dose: 220.0 mg/kg/injection, schedule: Q01DX Z (ip), vehicle: steriod suspending solution): 94 % of control | T/C (dose: 330.0 mg/kg/injection, schedule: Q01DX Z (ip), vehicle: steriod suspending solution): 98 % of control | T/C (dose: 500.0 mg/kg/injection, schedule: Q01DX001 (sc), vehicle: steriod suspending solution): 102 % of control | T/C (dose: 500.0 mg/kg/injection, schedule: Q01DX Z (ip), vehicle: steriod suspending solution): 90 % of control | T/C (dose: 600.0 mg/kg/injection, schedule: Q01DX001 (sc), vehicle: steriod suspending solution): 100 % of control | T/C (dose: 700.0 mg/kg/injection, schedule: Q01DX001 (sc), vehicle: steriod suspending solution): 96 % of control | T/C (dose: 800.0 mg/kg/injection, schedule: Q01DX001 (sc), vehicle: steriod suspending solution): 102 % of control

CC(=O)C12OC(C)(C)OC1CC1C3CCC4=CC(=O)CCC4(C)C3CCC12C (stereo not drawn)
T/C (dose: 12.5 mg/kg/injection, schedule: Q04DX002 (ip), vehicle: Klucel (hydroxypropylcellulose) (HPC)): 108 % of control | T/C (dose: 25.0 mg/kg/injection, schedule: Q04DX002 (ip), vehicle: Klucel (hydroxypropylcellulose) (HPC)): 108 % of control | T/C (dose: 50.0 mg/kg/injection, schedule: Q04DX002 (ip), vehicle: Klucel (hydroxypropylcellulose) (HPC)): 94 % of control

N=C(N)SCc1ccc(C(=O)Oc2ccc([N+](=O)[O-])cc2)cc1
T/C (dose: 25.0 mg/kg/injection, schedule: Q01DX009 (ip), vehicle: saline): 97 % of control | T/C (dose: 50.0 mg/kg/injection, schedule: Q01DX009 (ip), vehicle: saline): 100 % of control and 103 % of control | T/C [1]: 106 % of control | T/C [2]: 101 % of control | T/C [3]: 98 % of control

O=[N+]([O-])c1cccc(N(CCO)CCO)c1
T/C (dose: 50.0 mg/kg/injection, schedule: Q01DX001 (ip), vehicle: saline): 96 % of control | T/C [4]: 106 % of control | T/C [5]: 93 % of control | T/C [6]: 100 % of control

O=C(O)CCN(c1ccccc1)S(=O)(=O)c1ccccc1
T/C [4]: 94 % of control | T/C [5]: 94 % of control | T/C [6]: 94 % of control

CC1CN1C(=O)Nc1ccc(Cl)cc1 (stereo not drawn)
T/C (dose: 25.0 mg/kg/injection, schedule: Q04DX002 (ip), vehicle: other): 116 % of control | T/C (dose: 50.0 mg/kg/injection, schedule: Q04DX002 (ip), vehicle: other): 100 % of control | T/C (dose: 100.0 mg/kg/injection, schedule: Q04DX002 (ip), vehicle: other): 97 % of control and 91 % of control

CCCCCCCCCCCC[N+](CCO)(CCO)Cc1ccccc1
T/C (dose: 3.12 mg/kg/injection, schedule: Q01DX009 (ip), vehicle: saline): 96 % of control | T/C (dose: 6.25 mg/kg/injection, schedule: Q01DX009 (ip), vehicle: saline): 98 % of control | T/C (dose: 12.5 mg/kg/injection, schedule: Q04DX003 (ip), vehicle: saline): 88 % of control

O=C(Nc1cccc2ccccc12)c1ccccc1F
T/C (dose: 100.0 mg/kg/injection, schedule: Q01DX009 (ip), vehicle: Klucel (hydroxypropylcellulose) (HPC)): 95 % of control | T/C (dose: 200.0 mg/kg/injection, schedule: Q01DX009 (ip), vehicle: Klucel (hydroxypropylcellulose) (HPC)): 92 % of control | T/C (dose: 400.0 mg/kg/injection, schedule: Q01DX009 (ip), vehicle: Klucel (hydroxypropylcellulose) (HPC)): 104 % of control

COc1ccc(C(C)=O)cc1CCCO
T/C [4]: 95 % of control | T/C [5]: 91 % of control | T/C [6]: 97 % of control

CC(C)n1ncc2c(N)ncnc21
T/C (dose: 7.5 mg/kg/injection, schedule: Q01DX001 (ip), vehicle: saline): 107 % of control | T/C (dose: 7.5 mg/kg/injection, schedule: Q04DX003 (ip), vehicle: saline): 100 % of control | T/C (dose: 15.0 mg/kg/injection, schedule: Q01DX001 (ip), vehicle: saline): 100 % of control | T/C (dose: 15.0 mg/kg/injection, schedule: Q04DX003 (ip), vehicle: saline): 97 % of control | T/C (dose: 30.0 mg/kg/injection, schedule: Q01DX001 (ip), vehicle: saline): 100 % of control | T/C (dose: 30.0 mg/kg/injection, schedule: Q04DX003 (ip), vehicle: saline): 98 % of control

CC1S(=O)(=O)CC(NC(=O)N(CCCl)N=O)CS1(=O)=O (stereo not drawn)
T/C (dose: 3.5 mg/kg/injection, schedule: Q01DX001 (ip), vehicle: saline with Tween-80): 159 % of control | T/C (dose: 5.3 mg/kg/injection, schedule: Q01DX001 (ip), vehicle: saline with Tween-80): 172 % of control and 208 % of control | T/C (dose: 8.0 mg/kg/injection, schedule: Q01DX001 (ip), vehicle: saline with Tween-80): 278 % of control and 309 % of control | T/C (dose: 12.0 mg/kg/injection, schedule: Q01DX001 (ip), vehicle: saline with Tween-80): 357 % of control [middle of 4 runs] | T/C (dose: 18.0 mg/kg/injection, schedule: Q01DX001 (ip), vehicle: saline with Tween-80): 324 % of control and 421 % of control | T/C (dose: 26.0 mg/kg/injection, schedule: Q01DX001 (ip), vehicle: saline with Tween-80): 444 % of control and 458 % of control | T/C (dose: 40.0 mg/kg/injection, schedule: Q01DX001 (ip), vehicle: saline with Tween-80): 516 % of control and 442 % of control | T/C (dose: 60.0 mg/kg/injection, schedule: Q01DX001 (ip), vehicle: saline with Tween-80): 421 % of control and 156 % of control | T/C (dose: 90.0 mg/kg/injection, schedule: Q01DX001 (ip), vehicle: saline with Tween-80): 252 % of control and 258 % of control | T/C (dose: 135.0 mg/kg/injection, schedule: Q01DX001 (ip), vehicle: saline with Tween-80): 116 % of control

O=c1cc(NCc2ccc(Cl)cc2)[nH]c(=O)[nH]1
T/C (dose: 100.0 mg/kg/injection, schedule: Q01DX001 (ip), vehicle: saline with Tween-80): 108 % of control | T/C (dose: 200.0 mg/kg/injection, schedule: Q01DX001 (ip), vehicle: saline with Tween-80): 95 % of control | T/C (dose: 400.0 mg/kg/injection, schedule: Q01DX001 (ip), vehicle: saline with Tween-80): 98 % of control
